Where two headings read alike, the source gives them in different places.
What was measured:
[1] = molecular target: Acetylcholinesterase (Caudate) (Homo sapiens, UniProt P22303); experiment: biochemical
[2] = molecular target: Acetylcholinesterase (RBC) (Homo sapiens, UniProt P22303); experiment: biochemical
[3] = molecular target: Acetylcholinesterase (Eel) (Electrophorus electricus, UniProt O42275); experiment: biochemical
[4] = molecular target: Butyrylcholinesterase (Cortex) (Homo sapiens, UniProt P06276); experiment: biochemical
Chain of Butyrylcholinesterase (Cortex) (P06276 29-602): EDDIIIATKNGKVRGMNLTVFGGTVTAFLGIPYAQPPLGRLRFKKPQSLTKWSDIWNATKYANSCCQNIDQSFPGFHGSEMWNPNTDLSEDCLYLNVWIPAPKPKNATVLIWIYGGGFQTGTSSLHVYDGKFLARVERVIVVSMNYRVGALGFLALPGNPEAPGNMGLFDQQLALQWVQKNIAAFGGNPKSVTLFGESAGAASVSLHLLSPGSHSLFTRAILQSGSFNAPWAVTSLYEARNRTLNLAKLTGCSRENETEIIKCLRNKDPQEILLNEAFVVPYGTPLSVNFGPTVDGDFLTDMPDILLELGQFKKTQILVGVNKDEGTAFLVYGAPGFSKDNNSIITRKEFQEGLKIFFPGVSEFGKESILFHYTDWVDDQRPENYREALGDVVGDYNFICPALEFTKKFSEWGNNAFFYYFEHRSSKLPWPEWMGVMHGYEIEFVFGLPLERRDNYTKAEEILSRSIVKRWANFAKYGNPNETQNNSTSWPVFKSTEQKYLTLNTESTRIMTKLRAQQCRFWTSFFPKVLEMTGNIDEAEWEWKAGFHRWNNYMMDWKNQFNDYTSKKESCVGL

[5] = molecular target: Butyrylcholinesterase (Plasma) (Homo sapiens, UniProt P06276); experiment: biochemical
Chain of Butyrylcholinesterase (Plasma) (P06276 29-602): as above

[6] = molecular target: Acetylcholinesterase (Cortex) (Homo sapiens, UniProt P22303); experiment: biochemical
Chain of Acetylcholinesterase (Cortex) (P22303 32-614): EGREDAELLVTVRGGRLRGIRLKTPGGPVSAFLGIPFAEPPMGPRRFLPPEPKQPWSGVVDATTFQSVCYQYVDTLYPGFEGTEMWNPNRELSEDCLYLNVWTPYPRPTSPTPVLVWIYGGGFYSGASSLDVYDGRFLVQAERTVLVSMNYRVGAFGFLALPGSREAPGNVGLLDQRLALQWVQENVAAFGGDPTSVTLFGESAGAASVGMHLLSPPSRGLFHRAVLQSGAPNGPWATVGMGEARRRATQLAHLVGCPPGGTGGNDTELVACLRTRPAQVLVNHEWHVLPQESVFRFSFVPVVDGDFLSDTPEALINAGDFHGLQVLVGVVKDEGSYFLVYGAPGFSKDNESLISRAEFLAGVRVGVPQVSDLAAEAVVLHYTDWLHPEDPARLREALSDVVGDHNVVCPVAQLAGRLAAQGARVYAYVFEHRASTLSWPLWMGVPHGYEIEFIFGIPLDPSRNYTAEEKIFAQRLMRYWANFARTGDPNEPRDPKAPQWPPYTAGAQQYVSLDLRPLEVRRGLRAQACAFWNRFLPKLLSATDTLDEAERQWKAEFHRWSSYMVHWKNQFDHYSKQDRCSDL

acetylcholinesterase = assay type: biochemical; conditions: for IC50: read-out: IC50, antiacetylcholinesterase (approximate)
[7] = system: acetyl- and butyryl-cholinesterase; assay type: biochemical
neuromuscular AChR = conditions: cited from earlier work
butyrylcholinesterase = assay type: biochemical
nicotinic AChR = conditions: cited from earlier work
[8] = read-out: IC50 Acetylcholinesterase Cortex
[9] = read-out: IC50 Acetylcholinesterase Caudate
[10] = read-out: IC50 Acetylcholinesterase RBC
[11] = read-out: IC50 Acetylcholinesterase Eel
[12] = read-out: IC50 Butyrylcholinesterase Cortex
[13] = read-out: IC50 Butyrylcholinesterase Plasma

Chain of Acetylcholinesterase (Caudate) (P22303 32-614): as above
Chain of Acetylcholinesterase (Eel) (O42275 24-633): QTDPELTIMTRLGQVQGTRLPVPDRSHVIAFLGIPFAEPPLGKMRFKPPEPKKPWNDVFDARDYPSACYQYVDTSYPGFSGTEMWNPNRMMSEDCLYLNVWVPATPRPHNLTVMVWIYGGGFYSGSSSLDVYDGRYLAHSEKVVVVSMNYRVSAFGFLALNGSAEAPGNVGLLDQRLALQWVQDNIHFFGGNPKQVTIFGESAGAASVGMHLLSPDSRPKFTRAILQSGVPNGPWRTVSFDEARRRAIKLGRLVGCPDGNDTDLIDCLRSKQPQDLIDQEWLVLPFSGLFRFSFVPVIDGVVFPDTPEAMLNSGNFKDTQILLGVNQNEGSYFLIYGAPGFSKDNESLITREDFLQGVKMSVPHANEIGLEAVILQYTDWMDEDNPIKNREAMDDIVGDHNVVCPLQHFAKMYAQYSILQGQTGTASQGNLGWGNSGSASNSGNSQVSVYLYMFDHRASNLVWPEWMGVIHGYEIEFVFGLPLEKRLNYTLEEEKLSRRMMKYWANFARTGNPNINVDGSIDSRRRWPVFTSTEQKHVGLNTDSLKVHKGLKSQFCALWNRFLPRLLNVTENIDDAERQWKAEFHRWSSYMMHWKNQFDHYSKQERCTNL
Chain of Acetylcholinesterase (RBC) (P22303-2 with tags, fused parts or gaps limits assumed): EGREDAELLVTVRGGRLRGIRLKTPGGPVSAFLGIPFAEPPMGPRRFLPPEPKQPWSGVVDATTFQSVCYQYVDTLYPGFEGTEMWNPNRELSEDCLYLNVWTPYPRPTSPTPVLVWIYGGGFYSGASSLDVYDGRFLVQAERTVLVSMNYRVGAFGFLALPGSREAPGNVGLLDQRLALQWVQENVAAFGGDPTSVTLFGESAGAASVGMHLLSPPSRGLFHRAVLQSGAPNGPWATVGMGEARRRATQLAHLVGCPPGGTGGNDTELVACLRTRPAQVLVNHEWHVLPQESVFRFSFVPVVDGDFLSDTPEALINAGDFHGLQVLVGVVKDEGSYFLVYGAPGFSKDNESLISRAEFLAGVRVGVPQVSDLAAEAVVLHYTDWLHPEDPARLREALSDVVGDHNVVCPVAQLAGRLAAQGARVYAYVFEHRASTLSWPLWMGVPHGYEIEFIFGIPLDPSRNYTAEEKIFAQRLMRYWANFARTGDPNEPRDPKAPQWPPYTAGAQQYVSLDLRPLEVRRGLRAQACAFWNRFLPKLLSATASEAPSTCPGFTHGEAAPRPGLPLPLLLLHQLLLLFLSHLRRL

CN1CC[C@@]2(C)c3cc(O)ccc3N(C)[C@@H]12 (relative stereo) [(+/-)eseroline, reference compound]
IC50 [1]: > 10 µM
IC50 [2]: > 10 µM
IC50 [3]: > 10 µM
IC50 [4]: > 10 µM
IC50 [5]: > 10 µM

CNC(=O)Oc1ccc2c(c1)C1(C)CC[N+](C)(C)C1N2C (single isomer, unassigned) [YU-117, methosulfate of (-)physostigmine]
IC50 [6, 8]: 0.0371 ± 0.0066 µM
IC50 [1, 9]: 0.0283 ± 0.0037 µM
IC50 [2, 10]: 0.0294 ± 0.0052 µM
IC50 [3, 11]: 0.0335 ± 0.0006 µM
antiacetylcholinesterase potency in words (acetylcholinesterase): as potent against acetylcholinesterase as physostigmine itself
specificity acetyl- versus butyryl-cholinesterase [7]: more potent against acetylcholinesterase than against butyrylcholinesterase

CN1CC[C@]2(C)c3cc(O)ccc3N(C)[C@H]12 [(+)eseroline, reference compound]
IC50 [1]: > 10 µM
IC50 [2]: > 10 µM
IC50 [3]: > 10 µM
IC50 [4]: > 10 µM
IC50 [5]: > 10 µM

CNC(=O)Oc1ccc2c(c1)[C@]1(C)CCN(C)[C@@H]1N2C [(-) physo, (-)-physostigmine]
properties at the neuromuscular AChR (neuromuscular AChR): blocking as well as agonist properties

CN1CC[C@@]2(C)c3cc(O)ccc3N(C)[C@@H]12 [(-)eseroline, (-)-eseroline, reference compound]
IC50 [1]: > 10 µM
IC50 [2]: > 10 µM
IC50 [3]: > 10 µM
IC50 [4]: > 10 µM
IC50 [5]: > 10 µM

C=CC[N+](C)(C)c1ccc(CCC(=O)CCc2ccc([N+](C)(C)CC=C)cc2)cc1 [BW284c51, reference compound]
IC50 [3]: 0.0073 µM

CN1CC[C@@]2(C)c3cc(OC(=O)NCc4ccccc4)ccc3N(C)[C@@H]12 [YU-69-1, eseroline benzylcarbamate]
IC50 [6]: 0.024 ± 0.005 µM
IC50 [1]: 0.027 ± 0.01 µM
IC50 [2]: 0.026 ± 0.008 µM
IC50 [3]: 0.46 ± 0.08 µM
IC50 [4]: 0.02 ± 0.011 µM
IC50 [5]: 0.0027 ± 0.0016 µM

CCCCCCCCNC(=O)Oc1ccc2c(c1)[C@]1(C)CCN(C)[C@@H]1N2C [YU-71, eseroline octylcarbamate]
IC50 [4]: 0.0087 ± 0.0037 µM
IC50 [5]: 0.0036 ± 0.001 µM

CN1CC[C@@]2(C)c3cc(OC(=O)Nc4ccccc4)ccc3N(C)[C@@H]12 [YU-79, eseroline phenylcarbamate]
IC50 [6, 8]: 0.036 ± 0.003 µM
IC50 [1, 9]: 0.021 ± 0.001 µM
IC50 [2, 10]: 0.024 ± 0.006 µM
IC50 [3, 11]: 0.35 ± 0.09 µM
IC50 [4, 12]: 2.5 µM
IC50 [5, 13]: 1.3 µM
IC50 (acetylcholinesterase): ~0.03 µM
specificity acetyl- versus butyryl-cholinesterase [7]: relatively specific for acetyl- rather than butyryl-cholinesterase

CNC(=O)Oc1ccc2c(c1)[C@]1(C)CCN[C@@H]1N2C [YU-96, N--norphysostigmine]
antiacetylcholinesterase potency in words (acetylcholinesterase): as potent against acetylcholinesterase as physostigmine itself
specificity acetyl- versus butyryl-cholinesterase [7]: equipotent versus both acetyl- and butyryl-cholinesterase

C=CCN1CC[C@@]2(C)c3cc(OC(=O)NC)ccc3N(C)[C@@H]12 [YU-110, N--allyl physostigmine]
IC50 [4]: 0.0156 ± 0.0069 µM
IC50 [5]: 0.00265 ± 0.00201 µM
antiacetylcholinesterase potency in words (acetylcholinesterase): as potent against acetylcholinesterase as physostigmine itself
specificity acetyl- versus butyryl-cholinesterase [7]: equipotent versus both acetyl- and butyryl-cholinesterase

CNC(=O)Oc1ccc2c(c1)[C@]1(C)CCN(CCc3ccccc3)[C@@H]1N2C [YU-112, N--phenylethyl physostigmine]
IC50 [6]: 0.155 ± 0.028 µM
IC50 [1]: 0.191 ± 0.056 µM
IC50 [2]: 0.213 ± 0.038 µM

COc1ccc(NC(=O)Oc2ccc3c(c2)[C@]2(C)CCN(C)[C@@H]2N3C)cc1 [YU-114, methoxyphenyl carbamoyleseroline]
IC50 [3]: 1.68 ± 0.38 µM
IC50 [4]: 0.224 ± 0.047 µM
IC50 [5]: 0.0276 ± 0.0018 µM
reduction of antiacetylcholinesterase potency (acetylcholinesterase): approximately 10 fold
increase of antibutyrylcholinesterase potency (butyrylcholinesterase): ten-fold
specificity acetyl- versus butyryl-cholinesterase [7]: approximately equally potent against both enzymes

CN1CC[C@@]2(C)c3cc(OC(=O)Nc4ccc(Cl)cc4)ccc3N(C)[C@@H]12 [YU-116, chlorophenyl carbamoyleseroline]
IC50 [6]: 0.417 ± 0.088 µM
IC50 [1]: 0.448 ± 0.029 µM
IC50 [2]: 0.654 ± 0.032 µM
IC50 [3]: 1.8 ± 0.085 µM
IC50 [4]: 4.46 ± 1.29 µM
IC50 [5]: 4 ± 0.052 µM
antiacetylcholinesterase potency in words (acetylcholinesterase): much less against acetylcholinesterase
reduction of antiacetylcholinesterase potency (acetylcholinesterase): approximately 10 fold
IC50 (acetylcholinesterase): ~0.5 µM
specificity acetyl- versus butyryl-cholinesterase [7]: relatively specific for acetyl- rather than butyryl-cholinesterase

CCCCNC(=O)Oc1ccc2c(c1)[C@]1(C)CCN(C)[C@@H]1N2C [YU-120, butylcabamoyl eseroline]
IC50 [6]: 0.0208 ± 0.0037 µM
IC50 [1]: 0.0203 ± 0.0068 µM
IC50 [2]: 0.0176 ± 0.0091 µM
IC50 [3]: 0.152 ± 0.009 µM
IC50 [4]: 0.016 ± 0.0044 µM
IC50 [5]: 0.00413 ± 0.00125 µM
effect of shortening the side chain on potency against acetyl- or butyryl-cholinesterase [7]: does not alter the potency of the compound against either acetyl- or butyryl-cholinesterase

CC(C)NP(=O)(NC(C)C)OP(=O)(NC(C)C)NC(C)C [iso-OMPA, reference compound]
IC50 [3]: > 1000 µM

c1ccc(C2(N3CCCCC3)CCCCC2)cc1 [phencyclidine]
modification of AChR activation (nicotinic AChR): modify noncompetitively the activation of the AChR

Ethoprop [reference compound]
IC50 [3, 11]: 120 µM
IC50 [4, 12]: 0.21 µM
IC50 [5, 13]: 0.3 µM
